target: interaction between p53 and MDM2 proteins (Homo sapiens, UniProt Q00987); assay: HTRF assay of inhibition of the p53-MDM2 interaction (GST-MDM2 / biotinylated p53 peptide); type: binding; conditions: recombinant GST-tagged MDM2 and biotinylated p53 peptide, bsa:0.02%
Sequence (Q00987 whole entry): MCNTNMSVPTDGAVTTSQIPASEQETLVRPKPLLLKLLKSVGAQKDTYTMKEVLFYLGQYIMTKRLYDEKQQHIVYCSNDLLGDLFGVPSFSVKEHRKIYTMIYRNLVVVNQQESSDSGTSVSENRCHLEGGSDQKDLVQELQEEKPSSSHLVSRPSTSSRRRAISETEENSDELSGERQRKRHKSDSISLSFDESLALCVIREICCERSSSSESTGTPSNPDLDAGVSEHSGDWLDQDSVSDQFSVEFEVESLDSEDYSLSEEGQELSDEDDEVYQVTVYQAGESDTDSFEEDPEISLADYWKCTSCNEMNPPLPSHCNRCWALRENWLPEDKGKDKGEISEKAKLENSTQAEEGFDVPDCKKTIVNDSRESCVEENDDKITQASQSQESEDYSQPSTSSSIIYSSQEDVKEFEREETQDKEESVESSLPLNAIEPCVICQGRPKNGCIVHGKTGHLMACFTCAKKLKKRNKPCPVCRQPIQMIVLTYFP

Compound | IC50 [nM]
Cn1c(NC(=O)[C@@H]2N[C@@H](CC(C)(C)C)[C@@]3(C(=O)Nc4cc(Cl)ccc43)[C@H]2c2cccc(Cl)c2F)ccc1C(=O)OC(C)(C)C (racemic) [Example 194, rac-5-{[(2′S,3′R,4′S,5′R)-6-chloro-4′-(3-chloro-2-fluoro-phenyl)-2′-(2,2-dimethyl-propyl)-2-oxo-1,2-dihydro-spiro[indole-3,3′-pyrrolidine]-5′-carbonyl]amino}-1-methyl-1H-pyrrole-2-carboxylic acid tert-butyl ester] | 55
CCOC(=O)c1csc(NC(=O)[C@@H]2N[C@@H](CC(C)(C)C)[C@@]3(C(=O)Nc4cc(Cl)ccc43)[C@H]2c2cccc(Cl)c2F)n1 (racemic) [Example 196, rac-2-{[(2′S,3′R,4′S,5′R)-6-chloro-4′-(3-chloro-2-fluoro-phenyl)-2′-(2,2-dimethyl-propyl)-2-oxo-1,2-dihydro-spiro[indole-3,3′-pyrrolidine]-5′-carbonyl]-amino}-thiazole-4-carboxylic acid ethyl ester] | 50
CC(C)(C)C[C@@H]1N[C@@H](C(=O)Nc2nc(C(=O)O)cs2)[C@H](c2cccc(Cl)c2F)[C@]12C(=O)Nc1cc(Cl)ccc12 (racemic) [Example 197, rac-2-{[(2′S,3′R,4′S,5′R)-6-chloro-4′-(3-chloro-2-fluoro-phenyl)-2′-(2,2-dimethyl-propyl)-2-oxo-1,2-dihydro-spiro[indole-3,3′-pyrrolidine]-5′-carbonyl]amino}-thiazole-4-carboxylic acid] | 51
CC(C)(C)C[C@@H]1N[C@@H](C(=O)Nc2ccc(CCC(N)=O)cc2)[C@H](c2cccc(Cl)c2F)[C@]12C(=O)Nc1cc(Cl)ccc12 (racemic) [Example 211, rac-(2′S,3′R,4′S,5′R)-6-chloro-4′-(3-chloro-2-fluoro-phenyl)-2′-(2,2-dimethyl-propyl)-2-oxo-1,2-dihydro-spiro[indole-3,3′-pyrrolidine]-5′-carboxylic acid [4-(2-carbamoyl-ethyl)-phenyl]-amide] | 15
COC(=O)c1cc2cc(NC(=O)[C@@H]3N[C@@H](CC(C)(C)C)[C@@]4(C(=O)Nc5cc(Cl)ccc54)[C@H]3c3cccc(Cl)c3F)ccc2s1 (racemic) [Example 212, rac-5-{[(2′S,3′R,4′S,5′R)-6-chloro-4′-(3-chloro-2-fluoro-phenyl)-2′-(2,2-dimethyl-propyl)-2-oxo-1,2-dihydro-spiro[indole-3,3′-pyrrolidine]-5′-carbonyl]amino}-benzo[b]thiophene-2-carboxylic acid methyl ester] | 18
COC(=O)c1cc(OC)c(NC(=O)[C@@H]2N[C@@H](CC(C)(C)C)[C@@]3(C(=O)Nc4cc(Cl)ccc43)[C@H]2c2cccc(Cl)c2F)cc1F (racemic) [Example 214, rac-4-{[(2′S,3′R,4′S,5′R)-6-chloro-4′-(3-chloro-2-fluoro-phenyl)-2′-(2,2-dimethyl-propyl)-2-oxo-1,2-dihydro-spiro[indole-3,3′-pyrrolidine]-5′-carbonyl]amino}-2-fluoro-5-methoxy-benzoic acid methyl ester] | 20
CC(C)(C)C[C@@H]1N[C@@H](C(=O)Nc2ccc(NCC(=O)O)cc2)[C@H](c2cccc(Cl)c2F)[C@]12C(=O)Nc1cc(Cl)ccc12 (racemic) [Example 218, rac-(4-{[(2′S,3′R,4′S,5′R)-6-chloro-4′-(3-chloro-2-fluoro-phenyl)-2′-(2,2-dimethyl-propyl)-2-oxo-1,2-dihydro-spiro[indole-3,3′-pyrrolidine]-5′-carbonyl]amino}-phenylamino)-acetic acid] | 16
CC(C)(C)C[C@@H]1N[C@@H](C(=O)Nc2ccc(CC(=O)O)cc2)[C@H](c2cccc(Cl)c2F)[C@]12C(=O)Nc1cc(Cl)ccc12 (racemic) [Example 220, rac-(4-{[(2′S,3′R,4′S,5′R)-6-chloro-4′-(3-chloro-2-fluoro-phenyl)-2′-(2,2-dimethyl-propyl)-2-oxo-1,2-dihydro-spiro[indole-3,3′-pyrrolidine]-5′-carbonyl]-amino}-phenyl)-acetic acid] | 15

Results, then the molecule that gave them:

IC50 [nM] | Compound
7 | COc1cc(OCCO)ncc1NC(=O)[C@@H]1N[C@@H](CC(C)(C)C)[C@@]2(C(=O)Nc3cc(Cl)ccc32)[C@H]1c1cccc(Cl)c1F (racemic) [Example 192, rac-(2′S,3′R,4′S,5′R)-6-chloro-4′-(3-chloro-2-fluoro-phenyl)-2′-(2,2-dimethyl-propyl)-2-oxo-1,2-dihydro-spiro[indole-3,3′-pyrrolidine]-5′-carboxylic acid [6-(2-hydroxy-ethoxy)-4-methoxy-pyridin-3-yl]-amide]
15 | Cn1cccc1NC(=O)[C@@H]1N[C@@H](CC(C)(C)C)[C@@]2(C(=O)Nc3cc(Cl)ccc32)[C@H]1c1cccc(Cl)c1F (racemic) [Example 195, rac-(2′S,3′R,4′S,5′R)-6-chloro-4′-(3-chloro-2-fluoro-phenyl)-2′-(2,2-dimethyl-propyl)-2-oxo-1,2-dihydro-spiro[indole-3,3′-pyrrolidine]-5′-carboxylic acid (1-methyl-1H-pyrrol-2-yl)-amide]
12 | CC(C)(C)C[C@@H]1N[C@@H](C(=O)Nc2nc(C(N)=O)cs2)[C@H](c2cccc(Cl)c2F)[C@]12C(=O)Nc1cc(Cl)ccc12 (racemic) [Example 198, rac-(2′S,3′R,4′S,5′R)-6-chloro-4′-(3-chloro-2-fluoro-phenyl)-2′-(2,2-dimethyl-propyl)-2-oxo-1,2-dihydro-spiro[indole-3,3′-pyrrolidine]-5′-carboxylic acid (4-carbamoyl-thiazol-2-yl)-amide]
6 | CC(C)(C)C[C@@H]1N[C@@H](C(=O)Nc2ccc(OCC(=O)O)cc2)[C@H](c2cccc(Cl)c2F)[C@]12C(=O)Nc1cc(Cl)ccc12 (racemic) [Example 206, rac-(4-{[(2′S,3′R,4′S,5′R)-6-chloro-4′-(3-chloro-2-fluoro-phenyl)-2′-(2,2-dimethyl-propyl)-2-oxo-1,2-dihydro-spiro[indole-3,3′-pyrrolidine]-5′-carbonyl]amino}-phenoxy)-acetic acid]
4 | CC(C)(C)C[C@@H]1N[C@@H](C(=O)Nc2ccc(CCC(=O)O)cc2)[C@H](c2cccc(Cl)c2F)[C@]12C(=O)Nc1cc(Cl)ccc12 (racemic) [Example 209, rac-3-(4-{[(2′S,3′R,4′S,5′R)-6-chloro-4′-(3-chloro-2-fluoro-phenyl)-2′-(2,2-dimethyl-propyl)-2-oxo-1,2-dihydro-spiro[indole-3,3′-pyrrolidine]-5′-carbonyl]-amino}-phenyl)-propionic acid]
15 | CC(C)(C)C[C@@H]1N[C@@H](C(=O)Nc2ccc(OCC(N)=O)cc2)[C@H](c2cccc(Cl)c2F)[C@]12C(=O)Nc1cc(Cl)ccc12 (racemic) [Example 210, rac-(2′S,3′R,4′S,5′R)-6-chloro-4′-(3-chloro-2-fluoro-phenyl)-2′-(2,2-dimethyl-propyl)-2-oxo-1,2-dihydro-spiro[indole-3,3′-pyrrolidine]-5′-carboxylic acid (4-carbamoylmethoxy-phenyl)-amide]
14 | CC(C)(C)C[C@@H]1N[C@@H](C(=O)Nc2ccc3sc(C(=O)O)cc3c2)[C@H](c2cccc(Cl)c2F)[C@]12C(=O)Nc1cc(Cl)ccc12 (racemic) [Example 213, rac-5-{[(2′S,3′R,4′S,5′R)-6-chloro-4′-(3-chloro-2-fluoro-phenyl)-2′-(2,2-dimethyl-propyl)-2-oxo-1,2-dihydro-spiro[indole-3,3′-pyrrolidine]-5′-carbonyl]amino}-benzo[b]thiophene-2-carboxylic acid]
11 | COc1cc(C(=O)O)c(F)cc1NC(=O)[C@@H]1N[C@@H](CC(C)(C)C)[C@@]2(C(=O)Nc3cc(Cl)ccc32)[C@H]1c1cccc(Cl)c1F (racemic) [Example 215, rac-4-{[(2′S,3′R,4′S,5′R)-6-chloro-4′-(3-chloro-2-fluoro-phenyl)-2′-(2,2-dimethyl-propyl)-2-oxo-1,2-dihydro-spiro[indole-3,3′-pyrrolidine]-5′-carbonyl]-amino}-2-fluoro-5-methoxy-benzoic acid]
13 | CCOC(=O)CNc1ccc(NC(=O)[C@@H]2N[C@@H](CC(C)(C)C)[C@@]3(C(=O)Nc4cc(Cl)ccc43)[C@H]2c2cccc(Cl)c2F)cc1 (racemic) [Example 217, rac-(4-{[(2′S,3′R,4′S,5′R)-6-chloro-4′-(3-chloro-2-fluoro-phenyl)-2′-(2,2-dimethyl-propyl)-2-oxo-1,2-dihydro-spiro[indole-3,3′-pyrrolidine]-5′-carbonyl]-amino}-phenylamino)-acetic acid ethyl ester]
13 | CCOC(=O)Cc1ccc(NC(=O)[C@@H]2N[C@@H](CC(C)(C)C)[C@@]3(C(=O)Nc4cc(Cl)ccc43)[C@H]2c2cccc(Cl)c2F)cc1 (racemic) [Example 219, rac-(4-{[(2′S,3′R,4′S,5′R)-6-chloro-4′-(3-chloro-2-fluoro-phenyl)-2′-(2,2-dimethyl-propyl)-2-oxo-1,2-dihydro-spiro[indole-3,3′-pyrrolidine]-5′-carbonyl]amino}-phenyl)-acetic acid ethyl ester]
6 | COc1cc(OCC[S+](C)[O-])ccc1NC(=O)[C@@H]1N[C@@H](CC(C)(C)C)[C@@]2(C(=O)Nc3cc(Cl)ccc32)[C@H]1c1cccc(Cl)c1F (single isomer, unassigned) [Example 171, chiral (2′S,3′R,4′S,5′R)-6-chloro-4′-(3-chloro-2-fluoro-phenyl)-2′-(2,2-dimethyl-propyl)-2-oxo-1,2-dihydro-spiro[indole-3,3′-pyrrolidine]-5′-carboxylic acid [4-(2-methanesulfinyl-ethoxy)-2-methoxy-phenyl]-amide]
4 | CC(C)(C)C[C@@H]1N[C@@H](C(=O)Nc2ccc(C(N)=O)cc2)[C@H](c2cccc(Cl)c2F)[C@]12C(=O)Nc1cc(Cl)ccc12 [Example 9, chiral (2′S,3′R,4′S,5′R)-6-chloro-4′-(3-chloro-2-fluoro-phenyl)-2′-(2,2-dimethyl-propyl)-2-oxo-1,2-dihydro-spiro[indole-3,3′-pyrrolidine]-5′-carboxylic acid (4-carbamoyl-phenyl)-amide]
